According to patent US20220281848A1, “PYRAZOLE-SUBSTITUTED PYRROLIDINONES AS HERBICIDES” (FMC Corporation, priority 2019, published 2022):

Columns and labels:
Assay type in all cases: in vivo
[1] = tested on: blackgrass (Alopecurus myosuroides); test: Test B preemergence, blackgrass; conditions: 19 to 21 days
Description: (§1) Seeds of plant species selected from blackgrass (Alopecurus myosuroides), Italian ryegrass (Lolium multiflorum), wheat, winter (winter wheat, Triticum aestivum), corn (Zea mays), large (Lg) crabgrass (Digitaria sanguinalis), giant foxtail (Setaria faberi), johnsongrass (Sorghum halepense), ragweed (common ragweed, Ambrosia elatior), soybean (Glycine max), barnyardgrass (Echinochloa crus-galli), waterhemp (common waterhemp, Amaranthus rudis), palmer pigweed (Amaranthus palmeri), and surinam grass (Brachiaria decumbens), were planted into a silt loam soil and treated preemergence with test chemicals formulated in a non-phytotoxic solvent mixture which included a surfactant.
(§2) Treated plants and controls were maintained in a greenhouse for 19 to 21 days, after which time all species were compared to controls and visually evaluated. Plant response ratings, summarized in Table B, are based on a scale of 0 to 100 where 0 is no effect and 100 is complete control.

[2] = tested on: wheat, winter (winter wheat, Triticum aestivum); test: Test B preemergence, wheat, winter; conditions: 19 to 21 days
Description: as §1, §2

corn (Zea mays) = test: Test B preemergence, corn; conditions: 19 to 21 days
Description: as §1, §2

[3] = tested on: large (Lg) crabgrass (Digitaria sanguinalis); test: Test B preemergence, large crabgrass; conditions: 19 to 21 days
Description: as §1, §2

[4] = tested on: giant foxtail (Setaria faberi); test: Test B preemergence, giant foxtail; conditions: 19 to 21 days
Description: as §1, §2

[5] = tested on: johnsongrass (Sorghum halepense); test: Test B preemergence, johnsongrass; conditions: 19 to 21 days
Description: as §1, §2

[6] = tested on: ragweed (common ragweed, Ambrosia elatior); test: Test B preemergence, ragweed; conditions: 19 to 21 days
Description: as §1, §2

soybean (Glycine max) [7] = test: Test B preemergence, soybean; conditions: 19 to 21 days
Description: as §1, §2

[8] = tested on: palmer pigweed (Amaranthus palmeri); test: Test B preemergence, palmer pigweed; conditions: 19 to 21 days
Description: as §1, §2

[9] = tested on: surinam grass (Brachiaria decumbens); test: Test B preemergence, surinam grass; conditions: 19 to 21 days
Description: as §1, §2

soybean (Glycine max) [10] = test: Test C preemergence, soybean; conditions: 19 to 21 days
Description: (§3) Seeds of plant species selected from corn (Zea mays), soybean (Glycine max), velvetleaf (Abutilon theophrasti), palmer pigweed (Amaranthus palmeri), waterhemp (common waterhemp, Amaranthus rudis), surinam grass (Brachiaria decumbens), large (Lg) crabgrass (Digitaria sanguinalis), fall panicum (Panicum dichotomiflorum), giant foxtail (Setaria faberi), ragweed (common ragweed, Ambrosia elatior), barnyardgrass (Echinochloa crus-galli), E. Black Nightshade (Solanum ptycanthum), and horseweed (Conyza canadensis), were planted into a silt loam soil and treated preemergence with test chemicals formulated in a non-phytotoxic solvent mixture which included a surfactant.
(§4) Treated plants and controls were maintained in a greenhouse for 19 to 21 days, after which time all species were compared to controls and visually evaluated. Plant response ratings, summarized in Table C, are based on a scale of 0 to 100 where 0 is no effect and 100 is complete control.

[11] = tested on: velvetleaf (Abutilon theophrasti); test: Test C preemergence, velvetleaf; conditions: 4 g ai/ha Preemergence, 19 to 21 days
Description: as §3, §4

Structure (SMILES): CN1C[C@H](c2cc(C(F)(F)F)n(C)n2)[C@@H](C(=O)Nc2cccc(F)c2F)C1=O [Compound 13, (3S,4R)—N-(2,3-difluorophenyl)-1-methyl-4-[1-methyl-5-(trifluoromethyl)-1H-pyrazol-3-yl]-2-oxo-3-pyrrolidinecarboxamide]
- Plant response rating (0 no effect, 100 complete control) Blackgrass ([1]; 16 g ai/ha Preemergence): 0
- Plant response rating (0 no effect, 100 complete control) Blackgrass ([1]; 31 g ai/ha Preemergence): 0
- Plant response rating (0 no effect, 100 complete control) Blackgrass ([1]; 62 g ai/ha Preemergence): 13
- Plant response rating (0 no effect, 100 complete control) Blackgrass ([1]; 125 g ai/ha Preemergence): 18
- Plant response rating (0 no effect, 100 complete control) Wheat ([2]; 16 g ai/ha Preemergence): 3
- Plant response rating (0 no effect, 100 complete control) Wheat ([2]; 31 g ai/ha Preemergence): 20
- Plant response rating (0 no effect, 100 complete control) Wheat ([2]; 62 g ai/ha Preemergence): 40
- Plant response rating (0 no effect, 100 complete control) Wheat ([2]; 125 g ai/ha Preemergence): 63
- Plant response rating (0 no effect, 100 complete control) Corn (corn (Zea mays); 16 g ai/ha Preemergence): 3
- Plant response rating (0 no effect, 100 complete control) Corn (corn (Zea mays); 31 g ai/ha Preemergence): 5
- Plant response rating (0 no effect, 100 complete control) Corn (corn (Zea mays); 62 g ai/ha Preemergence): 13
- Plant response rating (0 no effect, 100 complete control) Corn (corn (Zea mays); 125 g ai/ha Preemergence): 48
- Plant response rating (0 no effect, 100 complete control) Crabgrass, Large ([3]; 16 g ai/ha Preemergence): 100
- Plant response rating (0 no effect, 100 complete control) Crabgrass, Large ([3]; 31 g ai/ha Preemergence): 100
- Plant response rating (0 no effect, 100 complete control) Crabgrass, Large ([3]; 62 g ai/ha Preemergence): 100
- Plant response rating (0 no effect, 100 complete control) Crabgrass, Large ([3]; 125 g ai/ha Preemergence): 100
- Plant response rating (0 no effect, 100 complete control) Foxtail, Giant ([4]; 16 g ai/ha Preemergence): 90
- Plant response rating (0 no effect, 100 complete control) Foxtail, Giant ([4]; 31 g ai/ha Preemergence): 95
- Plant response rating (0 no effect, 100 complete control) Foxtail, Giant ([4]; 62 g ai/ha Preemergence): 98
- Plant response rating (0 no effect, 100 complete control) Foxtail, Giant ([4]; 125 g ai/ha Preemergence): 98
- Plant response rating (0 no effect, 100 complete control) Johnsongrass ([5]; 16 g ai/ha Preemergence): 0
- Plant response rating (0 no effect, 100 complete control) Johnsongrass ([5]; 31 g ai/ha Preemergence): 8
- Plant response rating (0 no effect, 100 complete control) Johnsongrass ([5]; 62 g ai/ha Preemergence): 15
- Plant response rating (0 no effect, 100 complete control) Johnsongrass ([5]; 125 g ai/ha Preemergence): 55
- Plant response rating (0 no effect, 100 complete control) Ragweed ([6]; 16 g ai/ha Preemergence): 0
- Plant response rating (0 no effect, 100 complete control) Ragweed ([6]; 31 g ai/ha Preemergence): 0
- Plant response rating (0 no effect, 100 complete control) Ragweed ([6]; 62 g ai/ha Preemergence): 0
- Plant response rating (0 no effect, 100 complete control) Ragweed ([6]; 125 g ai/ha Preemergence): 0
- Plant response rating (0 no effect, 100 complete control) Soybean (soybean (Glycine max) [7]; 16 g ai/ha Preemergence): 0
- Plant response rating (0 no effect, 100 complete control) Soybean (soybean (Glycine max) [7]; 31 g ai/ha Preemergence): 0
- Plant response rating (0 no effect, 100 complete control) Soybean (soybean (Glycine max) [7]; 62 g ai/ha Preemergence): 0
- Plant response rating (0 no effect, 100 complete control) Soybean (soybean (Glycine max) [7]; 125 g ai/ha Preemergence): 8
- Plant response rating (0 no effect, 100 complete control) Pigweed, Palmer ([8]; 16 g ai/ha Preemergence): 0
- Plant response rating (0 no effect, 100 complete control) Pigweed, Palmer ([8]; 31 g ai/ha Preemergence): 0
- Plant response rating (0 no effect, 100 complete control) Pigweed, Palmer ([8]; 62 g ai/ha Preemergence): 0
- Plant response rating (0 no effect, 100 complete control) Pigweed, Palmer ([8]; 125 g ai/ha Preemergence): 0
- Plant response rating (0 no effect, 100 complete control) Surinam Grass ([9]; 16 g ai/ha Preemergence): 65
- Plant response rating (0 no effect, 100 complete control) Surinam Grass ([9]; 31 g ai/ha Preemergence): 78
- Plant response rating (0 no effect, 100 complete control) Surinam Grass ([9]; 62 g ai/ha Preemergence): 95
- Plant response rating (0 no effect, 100 complete control) Surinam Grass ([9]; 125 g ai/ha Preemergence): 93
- Plant response rating (0 no effect, 100 complete control) Soybean (soybean (Glycine max) [10]; 4 g ai/ha Preemergence): 0
- Plant response rating (0 no effect, 100 complete control) Soybean (soybean (Glycine max) [10]; 8 g ai/ha Preemergence): 0
- Plant response rating (0 no effect, 100 complete control) Soybean (soybean (Glycine max) [10]; 16 g ai/ha Preemergence): 0
- Plant response rating (0 no effect, 100 complete control) Soybean (soybean (Glycine max) [10]; 31 g ai/ha Preemergence): 0
- Plant response rating (0 no effect, 100 complete control) Soybean (soybean (Glycine max) [10]; 62 g ai/ha Preemergence): 0
- Plant response rating (0 no effect, 100 complete control) Soybean (soybean (Glycine max) [10]; 125 g ai/ha Preemergence): 0
- Plant response rating (0 no effect, 100 complete control) Velvetleaf [11]: 0
